How the values were obtained:
gelatinase A [1] = biological target: T1, gelatinase A (Homo sapiens, UniProt P08253); assay: Inhibitory activity against gelatinase A (FITC-labeled gelatin substrate); format: biochemical; settings: incubated 2 hours at 37° C., APMA-activated progelatinase A from human normal skin dermal fibroblasts
T1 construct: endogenous in cells; host or cells: human normal skin dermal fibroblasts (HNDF); progelatinase A purified from them
T1 sequence (P08253 110-660): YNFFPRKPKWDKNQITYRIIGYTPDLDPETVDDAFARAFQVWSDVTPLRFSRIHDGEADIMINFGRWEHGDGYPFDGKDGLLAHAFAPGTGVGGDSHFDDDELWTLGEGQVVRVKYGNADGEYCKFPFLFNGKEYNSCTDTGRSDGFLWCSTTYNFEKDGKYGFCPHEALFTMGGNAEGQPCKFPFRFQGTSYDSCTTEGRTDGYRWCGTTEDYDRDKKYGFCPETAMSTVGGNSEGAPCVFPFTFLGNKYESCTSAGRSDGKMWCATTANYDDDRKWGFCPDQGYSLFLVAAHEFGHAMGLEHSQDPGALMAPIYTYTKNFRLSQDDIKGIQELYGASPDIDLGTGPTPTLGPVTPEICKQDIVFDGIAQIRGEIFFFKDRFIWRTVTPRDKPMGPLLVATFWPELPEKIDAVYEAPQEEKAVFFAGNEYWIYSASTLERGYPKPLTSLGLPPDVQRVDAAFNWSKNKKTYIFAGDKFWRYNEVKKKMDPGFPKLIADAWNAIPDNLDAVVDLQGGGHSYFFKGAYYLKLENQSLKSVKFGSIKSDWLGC
Experimental: (§1) The potency of inhibitory activity against each matrix metalloproteinase is confirmed as below. The IC50 value for inhibition of gelatinase A activity is determined as follows.
(§2) (1) Inhibitory activity against gelatinase A
(§3) Progelatinase A (7 μl; in assay buffer (90 μl )) was purified from human normal skin dermal fibroblasts (HNDF). It was activated by the addition of 10 mM of p-aminophenylmercuric acetate (APMA) (10 μl) for 1 hour at 37° C.
The solution of activated gelatinase A (7 μl tube, 98μl) was mixed with various concentrations of the test compound or dimethylsulfoxide (2 μl) and gelatin (100 μl) labeled with 0.05% fluorescein isothiocyanate (FITC) and incubated for 2 hours at 37° C. The reaction was terminated by the addition of 0.1 M Tris-HCI (pH9.5) containing 94.7% ethanol (750 μl). The mixture was stirred and then allowed to stand for 30 minutes at 0° C. The mixture was centrifuged for 30 minutes at 900×g. The IC50 was determined by measuring the fluorescent intensity in the supernatant (Ex=495 nm, and Em=520 nm). The results are shown in Table 24 (Example number 2 and 2(3)).

gelatinase A [2] = biological target: T1, gelatinase A; assay: Inhibitory activity against gelatinase A (synthetic substrate MOCAc-Pro-Leu-Gly-Leu-A2 pr(Dnp)-Ala-Arg-NH2); format: biochemical; settings: final 13.5 μM, incubated 20 minutes at 37° C., activated gelatinase A
Experimental: as §1, §2, §3
Alternatively the inhibitory activity of the test compound was measured by using the synthetic substrate (MOCAc-Pro-Leu-Gly-Leu-A2 pr(Dnp)-Ala-Arg-NH2). The substrate solution (890 μl; the final concentration was 13.5 μM) was mixed with various concentrations of the test compound or dimethylsulfoxide ([…]) for 5 minutes at 37° C. The activated gelatinase A (7 μl/tube, 100 μl) was added to the reaction mixture and further incubated for 20 minutes at 37° C. 0.1 M sodium acetate buffer (2 ml; pH4.0) was added into the mixture. The IC50 was determined by measuring the fluorescent intensity (Ex=328 nm, and Em=393 nm) in this solution. The results are shown in Table 24 (Example number 2(4) and 3(2)).

| SMILES | IC50 (gelatinase A [1]) | IC50 (gelatinase A [2]) |
| --- | --- | --- |
| Cc1ccc(C(=O)Nc2ccc(S(=O)(=O)NCC(=O)NO)cc2)cc1 [Example 2, N N-Hydroxy-N-[N'-[[4-(p-toluoylamino)phenyl]sulfonyl]glycyl]amide] | 1.7 nM | – |
| Cc1ccc(C(=O)Nc2ccc(S(=O)(=O)N[C@H](Cc3c[nH]c4ccccc34)C(=O)NO)cc2)cc1 [Example 2(4), N-Hydroxy-N-[N'-[[4-(p-toluoylamino)phenyl]sulfonyl]-D-tryptophyl]amide] | – | 0.61 nM |
| CCCCCc1ccc(C(=O)Nc2ccc(S(=O)(=O)N[C@H](Cc3ccccc3)C(=O)NO)cc2)cc1 [Example 2(3), N-Hydroxy-N-[N'-[[4-(4-pentylbenzoylamino)phenyl]sulfonyl]-D-phenylalanyl]amide] | 1 nM | – |
| C[C@@H](NS(=O)(=O)c1ccc(NC(=O)c2cccs2)cc1)C(=O)NO [Example 3(2)] | – | 0.23 nM |

— patent publication US6022893A, “Hydroxamic acid derivatives” (ONO Pharmaceutical Co., Ltd., priority 1995, dated 2000)
